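Each compound was tested at five concentrations against cells in 96-well plates for 48 hours. TGI denotes the concentration required for complete inhibition of growth.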
Experiments:
Assay in all cases: NCI anticancer screen, dose series, 48 h
OVCAR-5 ovarian = tested on: OVCAR-5 ovarian
CAKI-1 renal = tested on: CAKI-1 renal
NCI-H23 lung = tested on: NCI-H23 lung
SNB-19 CNS = tested on: SNB-19 CNS
MDA-MB-435 = tested on: MDA-MB-435
SF-539 CNS = tested on: SF-539 CNS
M14 melanoma = tested on: M14 melanoma
RXF 393 renal = tested on: RXF 393 renal
LOX IMVI melanoma = tested on: LOX IMVI melanoma
T-47D breast = tested on: T-47D breast

| Structure (SMILES) | TGI (OVCAR-5 ovarian) | TGI (CAKI-1 renal) | TGI (NCI-H23 lung) | TGI (SNB-19 CNS) | TGI (MDA-MB-435) | TGI (SF-539 CNS) | TGI (M14 melanoma) | TGI (RXF 393 renal) | TGI (LOX IMVI melanoma) | TGI (T-47D breast) |
| --- | --- | --- | --- | --- | --- | --- | --- | --- | --- | --- |
| O=C(/C=C/c1ccccc1O)/C=C/c1ccccc1O | 3.14 µM | 3.21 µM | 3.84 µM | 4.86 µM | 4.64 µM | 3.57 µM | 3.55 µM | – | – | – |
| CC(=O)OCC1OC(c2nnc(C)o2)=CC(OC(C)=O)C1OC(C)=O (configuration not stated) | > 100 µM | > 100 µM | > 100 µM | > 100 µM | > 100 µM | > 100 µM | – | > 100 µM | > 100 µM | – |
| Cc1ccc2nc(Cl)c(/C=N/N3C(=O)/C(=C/c4ccc(N(C)C)cc4)N=C3c3ccccc3)cc2c1 | > 100 µM | > 100 µM | – | > 100 µM | 65.8 µM | 52.4 µM | > 100 µM | – | > 100 µM | > 100 µM |
| CN1CC2CC(C1)c1cccc(=O)n1C2 (configuration not stated) | > 100 µM | > 100 µM | > 100 µM | > 100 µM | > 100 µM | – | > 100 µM | > 100 µM | > 100 µM | > 100 µM |
| O=C(c1ccccc1)N1C(=S)N(c2ccc([N+](=O)[O-])cc2)C(=Nc2ccccc2)C1=Nc1ccccc1 | > 100 µM | > 100 µM | > 100 µM | > 100 µM | > 100 µM | > 100 µM | > 100 µM | > 100 µM | – | > 100 µM |
| O=C1/C(=C/c2ccco2)NC(=S)N1CN1CCOCC1 | > 100 µM | – | > 100 µM | > 100 µM | > 100 µM | – | > 100 µM | – | > 100 µM | – |
| CN1CCCCC(C(O)(c2ccccc2)c2ccccc2)C1=O (configuration not stated) | > 100 µM | – | > 100 µM | > 100 µM | – | > 100 µM | > 100 µM | > 100 µM | > 100 µM | – |
| COC1/C=C/C(C)C(C(C)C(OC)C(C)CCC(=O)C(C)C(C/C=C/N(C)C=O)OC)OC(=O)/C=C/C=C(\C)CC(OC)C(OC)C2=CC(=O)O[C@@H](C(C)C(OC)CC(OC)/C=C/C(C)C(O)C1)[C@H]2O (some centres not stated) | 0.623 µM | – | 0.373 µM | – | 0.977 µM | 0.381 µM | 0.309 µM | 0.263 µM | 0.0755 µM | 0.538 µM |
| N#Cc1c(N2CCN(c3ccc([N+](=O)[O-])cc3)CC2)[n+](=O)c2ccc(Cl)cc2n1[O-] | 29.1 µM | 2.7 µM | 3.96 µM | > 32.8 µM | 8.07 µM | 4.37 µM | > 23.4 µM | > 22.7 µM | 1.15 µM | – |
| C/C=C\C(CC(=O)NCCC1CN(C(=O)c2ccccc2)c2ccccc21)CC(=O)OC (configuration not stated) | > 100 µM | > 100 µM | > 100 µM | > 100 µM | > 100 µM | – | > 100 µM | > 100 µM | – | > 100 µM |
| COc1ccc2c(c1)-c1nn(CCN(C)C)c3ccc(C(=O)NCCCN(C)CCCNC(=O)c4ccc5c6c(nn5CCN(C)C)-c5cc(OC)ccc5Nc46)c(c13)N2 | 1.66 µM | 8.12 µM | 0.384 µM | 1.04 µM | 0.262 µM | 1.56 µM | 1.33 µM | 0.499 µM | 0.898 µM | – |
| COC(=O)n1c(CBr)c(Br)c2ccccc21 | 79.2 µM | 49.9 µM | 71 µM | > 100 µM | – | > 100 µM | > 100 µM | – | – | – |
| COc1cc(C2S/C(=C/c3ccccc3)C(=O)N2c2cccc([N+](=O)[O-])c2)cc(OC)c1OC (configuration not stated) | > 100 µM | > 100 µM | > 100 µM | > 100 µM | 41.2 µM | – | > 100 µM | – | > 100 µM | 21.4 µM |

Reference: PubChem BioAssay (NCI)
